Results on ten compounds are retold here after patent publication US20070135403A1, “Substituted 2,5-diaminomethyl-1H-pyrrole compounds” (Gruenenthal GmbH, priority 2004, published 2007).

Structures can show the parent of a compound that is named as a salt.

Assay [1] has as its target T1, 5-HT transporter (5-HT uptake) (Rattus norvegicus, UniProt P31652).
T1 construct: from tissue; host or cells: rat brain synaptosomes (P2 fraction) from medulla and pons
As to the kind of experiment: 5-HT uptake inhibition in rat brain synaptosomes (medulla and pons). The class given is biochemical. The following applies: % inhibition. The source says: (§1) b) Method For Determining Noradrenalin and 5-HT Uptake Inhibition
(§2) Synaptosomes from rat brain regions are freshly isolated for in vitro studies, as described in the publication “The isolation of nerve endings from brain” by E. G. Gray and V. P. Whittaker, J. Anatomy 96, pages 79-88, 1962. The corresponding literature description is hereby introduced as a reference and is deemed to be part of the disclosure.
(§3) The tissue (hypothalamus for the determination of noradrenalin uptake inhibition and medulla and pons for the determination of 5-HT uptake inhibition) is homogenised in ice-cooled 0.32 M sucrose (100 mg of tissue/1 ml) in a glass homogeniser with Teflon pestle using five complete up and down strokes at 840 revolutions/minute.
(§4) The homogenate is centrifuged at 4° C. for 10 minutes at 1000 g. After subsequent centrifugation at 17000 g for 55 minutes, the synaptosomes (P2 fraction) are obtained, which are resuspended in 0.32 M glucose (0.5 ml/100 mg of original weight).
(§5) The particular uptake is measured in a 96-well microtitre plate. The volume is 250 μl and the incubation proceeds at room temperature (approx. 20-25° C.) under an O2 atmosphere.
(§6) The incubation time is 7.5 minutes for [^3H]—NA and 5 minutes for [^3H]-5-HT. The 96 samples are then filtered through a Unifilter GF/B® microtitre plate (Packard) and washed with […] of incubated buffer using a “Brabdel MPXRI-96T Cell-Harvester”. The Unifilter GF/B plate is dried for 1 hour at 55° C. The plate is then sealed with a Back seal® (Packard) and 35 μl of scintillation fluid are added per well (Ultima Gold®, Packard). After sealing with a top seal® (Packard) and establishing an equilibrium (around 5 hours), radioactivity is determined in a “Trilux 1450 Microbeta” (Wallac).
(§7) The quantity of protein used in the above determination corresponds to the values known from the literature, as for example described in “Protein measurement with the folin phenol reagent”, Lowry et al., J. Biol. Chem., 193, 265-275, 1951. A detailed description of the method may additionally be found in the literature, for example in M.Ch. Frink, H.-H. Hennies, W. Engelberger, M. Haurand and B. Wilffert (1996) Arzneim.-Forsch./Drug Res. 46 (III), 11, 1029-1036. The disclosures of these two articles are hereby incorporated by reference.
(§8) The following characteristics were determined for the NA or 5-HT transporter: • NA uptake: Km=0.32±0.11 μM • 5HT uptake: Km=0.084±0.011 μM

Assay [2] has as its target T2, NA transporter (NA uptake) (Rattus norvegicus, UniProt Q63380).
T2 construct: from tissue; host or cells: rat brain synaptosomes (P2 fraction) from hypothalamus
As to the kind of experiment: Noradrenalin (NA) uptake inhibition in rat brain synaptosomes (hypothalamus). The conditions noted are these: 10 μM inhibition. The class given is biochemical.
Text: as §1, §2, §3, §4, §5, §6, §7, §8

The term inhibition denotes the change of the read-out against control, counted positive when it falls. A lower inhibition goes with little suppression.

T2 sequence (Q63380 1-617): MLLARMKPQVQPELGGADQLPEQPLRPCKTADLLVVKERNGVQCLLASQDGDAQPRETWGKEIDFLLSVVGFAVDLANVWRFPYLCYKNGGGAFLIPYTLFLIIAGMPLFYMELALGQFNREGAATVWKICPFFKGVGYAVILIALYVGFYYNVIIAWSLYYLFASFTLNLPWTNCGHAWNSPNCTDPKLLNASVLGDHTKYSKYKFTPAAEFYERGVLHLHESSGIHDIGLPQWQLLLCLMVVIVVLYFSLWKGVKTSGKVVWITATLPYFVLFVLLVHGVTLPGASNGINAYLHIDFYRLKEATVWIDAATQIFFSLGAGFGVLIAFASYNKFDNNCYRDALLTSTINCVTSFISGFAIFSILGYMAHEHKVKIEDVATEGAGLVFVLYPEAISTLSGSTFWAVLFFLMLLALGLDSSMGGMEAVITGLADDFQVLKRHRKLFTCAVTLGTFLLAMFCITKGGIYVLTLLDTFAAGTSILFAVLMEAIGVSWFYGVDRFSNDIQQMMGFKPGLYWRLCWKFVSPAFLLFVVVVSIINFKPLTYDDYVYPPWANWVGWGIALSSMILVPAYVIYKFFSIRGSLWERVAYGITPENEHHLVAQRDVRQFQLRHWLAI
T1 sequence (P31652 whole entry): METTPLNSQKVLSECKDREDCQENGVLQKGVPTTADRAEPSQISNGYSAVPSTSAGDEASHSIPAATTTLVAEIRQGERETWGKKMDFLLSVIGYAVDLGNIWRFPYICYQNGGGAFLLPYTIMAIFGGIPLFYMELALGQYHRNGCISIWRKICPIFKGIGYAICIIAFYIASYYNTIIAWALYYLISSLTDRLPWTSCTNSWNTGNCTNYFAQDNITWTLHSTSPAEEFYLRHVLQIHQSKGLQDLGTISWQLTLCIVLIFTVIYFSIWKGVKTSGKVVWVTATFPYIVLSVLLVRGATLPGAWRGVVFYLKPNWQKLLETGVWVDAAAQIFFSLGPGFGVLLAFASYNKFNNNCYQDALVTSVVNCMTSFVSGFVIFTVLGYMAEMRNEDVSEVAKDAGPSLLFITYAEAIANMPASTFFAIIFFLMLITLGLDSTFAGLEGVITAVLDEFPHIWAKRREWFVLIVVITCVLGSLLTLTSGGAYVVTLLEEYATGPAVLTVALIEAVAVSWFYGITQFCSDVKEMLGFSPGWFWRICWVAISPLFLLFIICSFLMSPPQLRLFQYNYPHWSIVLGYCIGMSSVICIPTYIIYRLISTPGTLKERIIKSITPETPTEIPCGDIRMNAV

“4-[1-Methyl-5-(4-phenyl-piperidin-1-ylmethyl)-1H-pyrrol-2-ylmethyl]-morpholine [Example 3]” had a 5HT uptake inhibition in assay [1] (10 μM) of 59%. This compound returned an NA uptake inhibition in assay [2] of 71.
The compound `CCN(CC)Cc1ccc(CN2CCCCC2)n1C` [Example 1, Diethyl-(1-methyl-5-piperidin-1-ylmethyl-1H-pyrrol-2-ylmethyl)-amine dihydrochloride] yielded an inhibition at 10 µM in assay [1] of 34%.
Still for that read-out and setting: as for `CC1CCN(Cc2ccc(CN3CCCCC3)n2C)CC1` [Example 2, 1-(1-Methyl-5-piperidin-1-ylmethyl-1H-pyrrol-2-ylmethyl)-4-methylpiperidine], the figure is 72%.
Turning to `Cn1c(CN2CCCCC2)ccc1CN1CCN(c2ccccc2)CC1` [Example 4, 1-(1-Methyl-5-piperidin-1-ylmethyl-1H-pyrrol-2-ylmethyl)-4-phenyl-piperazine], the inhibition at 10 µM was 48% in assay [1] and 77% in assay [2].
The matching figures for `Cn1c(CN2CCCCCC2)ccc1CN1CCC(Cc2ccccc2)CC1` [Example 5, 1-[5-(4-Benzyl-piperidin-1-ylmethyl)-1-methyl-1H-pyrrol-2-ylmethyl]-azepane]: 64% and 100%.
On the same counts, the results for `CN(Cc1ccccc1)Cc1ccc(CN2CCC(Cc3ccccc3)CC2)n1C` [Example 6, Benzyl-[5-(4-benzyl-piperidin-1-ylmethyl)-1-methyl-1H-pyrrol-2-ylmethyl]-methyl-amine] are 61% and 100%.
On the same counts, the results for `Cn1c(CN2CCOCC2)ccc1CN1CCC(Cc2ccccc2)CC1` [Example 7, 4-[5-(4-Benzyl-piperidin-1-ylmethyl)-1-methyl-1H-pyrrol-2-ylmethyl]-morpholine] are 55% and 100%.
Take `CN(Cc1ccccc1)Cc1ccc(CN2CCCCCC2)n1C` [Example 8, (5-Azepan-1-ylmethyl-1-methyl-1H-pyrrol-2-ylmethyl)-benzyl-methyl-amine]: at 10 µM the inhibition in assay [2] was 62%.
With `CC1CCCCN1Cc1ccc(CN(C)Cc2ccccc2)n1C` (stereo not drawn) [Example 9, Benzyl-methyl-[1-methyl-5-(2-methyl-piperidin-1-ylmethyl)-1H-pyrrol-2-ylmethyl]-amine], in assay [2], 10 µM produced 57% inhibition.
“Benzyl-methyl-[1-methyl-5-(4-phenyl-piperidin-1-ylmethyl)-1H-pyrrol-2-ylmethyl]-amine [Example 10]” came in with an NA uptake inhibition in assay [2] of 53.
